The results in this text go back to US20200347043A1, “MODULATORS OF THE INTEGRATED STRESS PATHWAY” (Calico Life Sciences LLC, priority 2019, published 2020).

A value given as a limit tells only on which side of the number the result lay.

One may read the EC50 as the concentration needed to bring the measured effect to its halfway point.

In this experiment the test system is HEK293T cells carrying the ATF4 luciferase reporter. Put plainly: ATF4-Luc assay (in vitro model of VWMD). In kind it is cell-based, human. The note with it: Homo sapiens, HEK-293T, 1 μg/mL tunicamycin, 7 hours, One Glo luminescence. A digest of the protocol: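 Stable HEK293T line expressing firefly luciferase behind the human ATF4 5′-UTR, treated with 1 μg/mL tunicamycin plus compound for 7 hours. Luminescence read with One Glo; EC50 determined.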

For the molecule `O=C(NC12CC(n3cc(C4CCC4)cn3)(C1)C2)[C@@H]1C[C@@H](O)c2cc(Cl)ccc2O1` [Compound 291, (2S,4R)-6-chloro-N-[3-(4-cyclobutyl-1H-pyrazol-1-yl)bicyclo[1.1.1]pentan-1-yl]-4-hydroxy-3,4-dihydro-2H-1-benzopyran-2-carboxamide], the EC50 was in the range of 0.5 to 2 µM.

Take `O=C(NC12CC(c3cc(-c4ccc(Cl)cc4)on3)(C1)C2)[C@@H]1C[C@@H](O)c2cc(Cl)ccc2O1` [Compound 257, (2S,4R)-6-chloro-N-{3-[5-(4-chlorophenyl)-1,2-oxazol-3-yl]bicyclo[1.1.1]pentan-1-yl}-4-hydroxy-3,4-dihydro-2H-1-benzopyran-2-carboxamide]: the EC50 was in the range of 0.05 to 0.25 µM.

In the case of `O=C(NC12CC(n3cc(-c4ccc(Cl)cc4)cn3)(C1)C2)[C@H]1C[C@@H](O)c2cc(Cl)ccc2O1` [Compound 212, (2R,4R)-6-chloro-N-{3-[4-(4-chlorophenyl)-1H-pyrazol-1-yl]bicyclo[1.1.1]pentan-1-yl}-4-hydroxy-3,4-dihydro-2H-1-benzopyran-2-carboxamide], the EC50 was less than 0.01 µM.

Take `O=C1CC(C(=O)N[C@H]2C[C@H]3CC[C@@H](C2)N3CCCOc2ccc(Cl)cc2)Oc2ccc(Cl)cc21` (stereo partly drawn) [Compound 101]: the EC50 was more than 2 µM.

As for `O=C(NC12CC(c3ncc([C@H]4C[C@@H](OC(F)(F)F)C4)[nH]3)(C1)C2)[C@H]1C[C@@H](O)c2cc(Cl)ccc2O1` [Compound 289, (2R,4R)-6-chloro-4-hydroxy-N-(3-{5-[cis-3-(trifluoromethoxy)cyclobutyl]-1H-imidazol-2-yl}bicyclo[1.1.1]pentan-1-yl)-3,4-dihydro-2H-1-benzopyran-2-carboxamide], the EC50 is 0.01 to 0.05 µM.

As to `O=C(NC12CC(n3cnc([C@H]4C[C@@H](OC(F)(F)F)C4)c3)(C1)C2)[C@H]1C[C@@H](O)c2cc(Cl)ccc2O1` [Compound 287, (2R,4R)-6-chloro-4-hydroxy-N-(3-{4-[cis-3-(trifluoromethoxy)cyclobutyl]-1H-imidazol-1-yl}bicyclo[1.1.1]pentan-1-yl)-3,4-dihydro-2H-1-benzopyran-2-carboxamide], the EC50 was less than 0.01 µM.

In the case of `O=C1C[C@H](C(=O)NC23CC(C(=O)N[C@H]4C[C@@H](OC(F)(F)F)C4)(C2)C3)Oc2ccc(Cl)cc21` [Compound 216, (2R)-6-chloro-4-oxo-N-(3-{[cis-3-(trifluoromethoxy)cyclobutyl]carbamoyl}bicyclo[1.1.1]pentan-1-yl)-3,4-dihydro-2H-1-benzopyran-2-carboxamide], the EC50 is more than 2 µM.

For the molecule `O=C(NC12CCC(c3nnc([C@H]4C[C@@H](OC(F)(F)F)C4)o3)(CC1)OC2)[C@H]1C[C@@H](O)c2cc(Cl)ccc2O1` [Compound 191, (2R,4R)-6-chloro-4-hydroxy-N-(1-{5-[cis-3-(trifluoromethoxy)cyclobutyl]-1,3,4-oxadiazol-2-yl}-2-oxabicyclo[2.2.2]octan-4-yl)-3,4-dihydro-2H-1-benzopyran-2-carboxamide], the EC50 was less than 0.01 µM.

As for `O=C(CO[C@H]1C[C@@H](OC(F)(F)F)C1)N[C@H]1CC[C@H](NC(=O)[C@H]2CC(=O)c3cc(Cl)ccc3O2)CC1` [Compound 213, (2R)-6-chloro-4-oxo-N-[trans-4-(2-{[cis-3-(trifluoromethoxy)cyclobutyl]oxy}acetamido)cyclohexyl]-3,4-dihydro-2H-1-benzopyran-2-carboxamide], the EC50 lay within 0.05 to 0.25 µM.

As to `O=C(NC12CC(c3nc([C@H]4C[C@@H](OC(F)(F)F)C4)no3)(C1)C2)[C@@H]1C[C@H](O)c2cc(Cl)ccc2O1` [Compound 218, (2S,4S)-6-chloro-4-hydroxy-N-(3-{3-[cis-3-(trifluoromethoxy)cyclobutyl]-1,2,4-oxadiazol-5-yl}bicyclo[1.1.1]pentan-1-yl)-3,4-dihydro-2H-1-benzopyran-2-carboxamide], the EC50 lay in the range of 0.5 to 2 µM.

For the molecule `O=C(NC1CC2(C1)CN(C(=O)COc1ccc(Cl)c(F)c1)C2)[C@H]1C[C@@H](O)c2cc(Cl)ccc2O1` [Compound 143, (2R,4R)-6-chloro-N-{2-[(4-chloro-3-fluorophenoxy)acetyl]-2-azaspiro[3.3]heptan-6-yl}-4-hydroxy-3,4-dihydro-2H-1-benzopyran-2-carboxamide], the EC50 lay within 0.05 to 0.25 µM.

For the molecule `O=C(COc1ccc(Cl)c(F)c1)NC12CC(C(=O)NCC3CCc4cc(Cl)ccc4O3)(C1)C2` (stereo not drawn) [Compound 129, N-[(6-chloro-3,4-dihydro-2H-1-benzopyran-2-yl)methyl]-3-[2-(4-chloro-3-fluorophenoxy)acetamido]bicyclo[1.1.1]pentane-1-carboxamide], the EC50 fell in the range of 0.01 to 0.05 µM.

In the case of `O=C(NC12CC(n3cnc(-c4ccc(C(F)(F)F)nc4)c3)(C1)C2)[C@@H]1C[C@@H](O)c2cc(Cl)ccc2O1` [Compound 231, (2S,4R)-6-chloro-4-hydroxy-N-(3-{4-[6-(trifluoromethyl)pyridin-3-yl]-1H-imidazol-1-yl}bicyclo[1.1.1]pentan-1-yl)-3,4-dihydro-2H-1-benzopyran-2-carboxamide], the EC50 was in the range of 0.01 to 0.05 µM.

Turning to `O=C(NC12CC(c3nnc([C@H]4C[C@@H](OC(F)(F)F)C4)o3)(C1)C2)[C@H]1C[C@@H](O)c2cc(Cl)ccc2O1` (racemic) [Compound 159, rac-(2R,4R)-6-chloro-4-hydroxy-N-(3-{5-[(1s,3S)-3-(trifluoromethoxy)cyclobutyl]-1,3,4-oxadiazol-2-yl}bicyclo[1.1.1]pentan-1-yl)-3,4-dihydro-2H-1-benzopyran-2-carboxamide], the EC50 lay in the range of 0.01 to 0.05 µM.

For the molecule `O=C(NC12CC(c3cnn(-c4ccc(Cl)c(F)c4)c3)(C1)C2)[C@H]1C[C@@H](O)c2cc(Cl)ccc2O1` [Compound 237, (2R,4R)-6-chloro-N-{3-[1-(4-chloro-3-fluorophenyl)-1H-pyrazol-4-yl]bicyclo[1.1.1]pentan-1-yl}-4-hydroxy-3,4-dihydro-2H-1-benzopyran-2-carboxamide], the EC50 was less than 0.01 µM.

Turning to `O=C(CO[C@H]1C[C@@H](OC(F)(F)F)C1)NC12CCC(NC(=O)[C@@H]3C[C@H](O)c4cc(Cl)ccc4O3)(CC1)C[C@@H]2O` [Compound 276, (2S,4S)-6-chloro-4-hydroxy-N-[(3S)-3-hydroxy-4-(2-{[cis-3-(trifluoromethoxy)cyclobutyl]oxy}acetamido)bicyclo[2.2.2]octan-1-yl]-3,4-dihydro-2H-1-benzopyran-2-carboxamide], the EC50 is less than 0.01 µM.

Take `O=C(NC12CC(n3ccc(-c4ccc(C(F)(F)F)nc4)c3)(C1)C2)[C@@H]1C[C@@H](O)c2cc(Cl)ccc2O1` [Compound 245, (2S,4R)-6-chloro-4-hydroxy-N-(3-{3-[6-(trifluoromethyl)pyridin-3-yl]-1H-pyrrol-1-yl}bicyclo[1.1.1]pentan-1-yl)-3,4-dihydro-2H-1-benzopyran-2-carboxamide]: the EC50 fell in the range of 0.05 to 0.25 µM.

Take `O=C(NC12CCC(c3nnc([C@H]4C[C@@H](OC(F)(F)F)C4)o3)(CC1)CC2)[C@H]1C[C@@H](O)c2cc(Cl)ccc2O1` (racemic) [Compound 171, rac-(2R,4R)-6-chloro-4-hydroxy-N-(4-{5-[cis-3-(trifluoromethoxy)cyclobutyl]-1,3,4-oxadiazol-2-yl}bicyclo[2.2.2]octan-1-yl)-3,4-dihydro-2H-1-benzopyran-2-carboxamide]: the EC50 was less than 0.01 µM.
